Test results taken from the OligoGym collection.
“And” between values parts separate entries of the source, which are not always exact repeats. Equal values may be shown once. After the bases stand the sugars from the 5' end (letter, count) and the backbone: PS all phosphorothioate, else s phosphorothioate and o phosphodiester by linkage. Methylation of C is not given here. e = 2'-O-(2-methoxyethyl) (MOE); k = constrained ethyl (cEt); d = 2'-deoxy (DNA)

Biological target: IRF5
Details: ASO

CTTCTGCAGGGAGTCA (sugars kkdddddddddkdkdk, PS)
target mRNA inhibition (KARPAS-229, 4 µM): 0%

GAGTGAGACGAGCAAA (sugars kdddddddddkekeke, PS)
target mRNA inhibition (KARPAS-229, 4 µM): 6%

ATTTTGTGACTGTATT (sugars k3 d10 k3, PS)
target mRNA inhibition (KARPAS-229, 4 µM): 4%

CCAATGCAACATCCAT (sugars k3 d10 k3, PS)
target mRNA inhibition (KARPAS-229, 4 µM): 0%

AGGTTCTTGGACTCTC (sugars kkdddddddddkekek, PS)
target mRNA inhibition (KARPAS-229, 4 µM): 38%

CCAATTTTGCATTCCA (sugars k3 d10 k3, PS)
target mRNA inhibition (KARPAS-229, 0.44444 µM): 51%
target mRNA inhibition (KARPAS-229, 1.33333 µM): 74%
target mRNA inhibition (KARPAS-229, 4 µM): 78% and 83%
target mRNA inhibition (KARPAS-229, 12 µM): 89%

TTATCTCCGTCCTGGC (sugars k3 d9 k3 e1, PS)
target mRNA inhibition (KARPAS-229, 4 µM): 0%

GAGTCATGGGCTGAGG (sugars k2 d8 e4 k2, PS)
target mRNA inhibition (KARPAS-229, 4 µM): 5%

TGAATTTTGTGACTGT (sugars k3 d10 k3, PS)
target mRNA inhibition (KARPAS-229, 0.44444 µM): 32%
target mRNA inhibition (KARPAS-229, 1.33333 µM): 59%
target mRNA inhibition (KARPAS-229, 4 µM): 64% and 70%
target mRNA inhibition (KARPAS-229, 12 µM): 81%

CTTCTGCAGGGAGTCA (sugars k3 d9 k3 e1, PS)
target mRNA inhibition (KARPAS-229, 4 µM): 0%

AGATGGTGTTATCTCC (sugars kddddddddddkekek, PS)
target mRNA inhibition (KARPAS-229, 4 µM): 0%

TCACCACTGTGTACCC (sugars kkdddddddddkekek, PS)
target mRNA inhibition (KARPAS-229, 4 µM): 0%

GTTATCTCCGTCCTGG (sugars kkddddddddkekekk, PS)
target mRNA inhibition (KARPAS-229, 4 µM): 0%

AGATGGTGTTATCTCC (sugars kkdddddddddkekek, PS)
target mRNA inhibition (KARPAS-229, 4 µM): 0%

CCAATTTTGCATTCCA (sugars k2 d8 e4 k2, PS)
target mRNA inhibition (KARPAS-229, 4 µM): 48%

CTAGTGTCATGGAATT (sugars k3 d10 k3, PS)
target mRNA inhibition (KARPAS-229, 4 µM): 34%

GAGTCTCAAACCAGGG (sugars kdddddddddkekeke, PS)
target mRNA inhibition (KARPAS-229, 4 µM): 6%

TGAGACGAGCAAAGGG (sugars k3 d10 k3, PS)
target mRNA inhibition (KARPAS-229, 4 µM): 22%

ACCACTGTGTACCCCA (sugars kkddddddddddkeke, PS)
target mRNA inhibition (KARPAS-229, 0.44444 µM): 26%
target mRNA inhibition (KARPAS-229, 1.33333 µM): 38%
target mRNA inhibition (KARPAS-229, 4 µM): 66% and 56%
target mRNA inhibition (KARPAS-229, 12 µM): 70%

GTTATCTCCGTTCCTGG (sugars kkkddddddddkekekd, PS)
target mRNA inhibition (KARPAS-229, 4 µM): 0%

AGGAAGTGAGTCTCAA (sugars kkdddddddddkekek, PS)
target mRNA inhibition (KARPAS-229, 4 µM): 42%

TGAGTCATGGAGCTGAG (sugars k2 d9 e3 k2 d1, PS)
target mRNA inhibition (KARPAS-229, 4 µM): 16%

AGGAGTGAGACGAGCA (sugars kekdddddddddeekk, PS)
target mRNA inhibition (KARPAS-229, 4 µM): 22%

TGCACTGACACAGGCG (sugars kkddddddddddkeke, PS)
target mRNA inhibition (KARPAS-229, 4 µM): 16%

TTCTGCAGGGAGTCAG (sugars k3 d10 k3, PS)
target mRNA inhibition (KARPAS-229, 4 µM): 0%

GCTTGGTCTTGACCTC (sugars kkddddddddddkeke, PS)
target mRNA inhibition (KARPAS-229, 4 µM): 9%

GGAGTGAGACGAGCAA (sugars kkkddddddddkekek, PS)
target mRNA inhibition (KARPAS-229, 4 µM): 5%

AGGAAGTGAGTCTCAA (sugars kkkddddddddkdkdk, PS)
target mRNA inhibition (KARPAS-229, 4 µM): 40%

CCTTCTGCAGGGAGTC (sugars k3 d10 k3, PS)
target mRNA inhibition (KARPAS-229, 4 µM): 0%

TTTCTTGTCTAGTGTC (sugars k3 d10 k3, PS)
target mRNA inhibition (KARPAS-229, 4 µM): 53%

CTTCTGCAGGGAGTCA (sugars kkkddddddddkekek, PS)
target mRNA inhibition (KARPAS-229, 4 µM): 0%

CCTTCTGCAGGGAGTC (sugars k3 d9 k3 e1, PS)
target mRNA inhibition (KARPAS-229, 4 µM): 0%

TGTCTAGTGTCATGGA (sugars kkdddddddddkdkdk, PS)
target mRNA inhibition (KARPAS-229, 4 µM): 40%

CCACTGTGTACCCCAT (sugars kkddddddddkekekk, PS)
target mRNA inhibition (KARPAS-229, 4 µM): 0%

GGTGTATTTCCCTGTC (sugars kkddddddddkekekk, PS)
target mRNA inhibition (KARPAS-229, 4 µM): 0%

GTGTATTTCCCTGTCT (sugars k3 d9 k3 e1, PS)
target mRNA inhibition (KARPAS-229, 4 µM): 30%

AGGAGTGAGACGAGCA (sugars k3 d10 k3, PS)
target mRNA inhibition (KARPAS-229, 0.44444 µM): 12%
target mRNA inhibition (KARPAS-229, 1.33333 µM): 41%
target mRNA inhibition (KARPAS-229, 4 µM): 56% and 58%
target mRNA inhibition (KARPAS-229, 12 µM): 70%

AAAGGGTGAGTAGGAC (sugars k3 d10 k3, PS)
target mRNA inhibition (KARPAS-229, 4 µM): 24%

GCTTGGTCTTGACCTC (sugars kkkddddddddkdkdk, PS)
target mRNA inhibition (KARPAS-229, 4 µM): 30%

CTTGGTCTTGACCTCC (sugars kkddddddddkekekk, PS)
target mRNA inhibition (KARPAS-229, 4 µM): 0%

TCTGGCCCTTTTGGAA (sugars kkddddddddkekekk, PS)
target mRNA inhibition (KARPAS-229, 4 µM): 0%

GGTCTTTGAGGTCTGG (sugars k2 d8 e4 k2, PS)
target mRNA inhibition (KARPAS-229, 4 µM): 56%

CTGATATGATACCTAA (sugars k3 d1 k1 d8 k3, PS)
target mRNA inhibition (A-431, 0.00412 µM): 20%
target mRNA inhibition (A-431, 0.01225 µM): 29%
target mRNA inhibition (A-431, 0.03704 µM): 38%
target mRNA inhibition (A-431, 0.11111 µM): 64%
target mRNA inhibition (A-431, 0.33333 µM): 83%
target mRNA inhibition (A-431, 1 µM): 83%

TGCACTGACACAGGCG (sugars kkdddddddddkdkdk, PS)
target mRNA inhibition (KARPAS-229, 4 µM): 0%

CAGGTTCTTGGACTCT (sugars kkddddddddkekekk, PS)
target mRNA inhibition (KARPAS-229, 4 µM): 0%

GGTTCTTGGACTCTCA (sugars kkkddddddddkdkdk, PS)
target mRNA inhibition (KARPAS-229, 4 µM): 28%

GTGAGTCTCAAACCAG (sugars k3 d10 k3, PS)
target mRNA inhibition (KARPAS-229, 4 µM): 9%

CTTGGTCTTGACCTCC (sugars kkkddddddddkekek, PS)
target mRNA inhibition (KARPAS-229, 4 µM): 1%

AGCTTGGTCTTGACCT (sugars kekdddddddddeekk, PS)
target mRNA inhibition (KARPAS-229, 4 µM): 38%

AAACCATTCTATGCCT (sugars k3 d10 k3, PS)
target mRNA inhibition (KARPAS-229, 4 µM): 0%

ACTGACACAGGCGGAT (sugars kkddddddddkekekk, PS)
target mRNA inhibition (KARPAS-229, 4 µM): 0%

CCATTCTATGCCTTTT (sugars kkddddddddkekekk, PS)
target mRNA inhibition (KARPAS-229, 4 µM): 3%

GTGAGACGAGCAAAGG (sugars k3 d10 k3, PS)
target mRNA inhibition (KARPAS-229, 0.44444 µM): 60%
target mRNA inhibition (KARPAS-229, 1.33333 µM): 49%
target mRNA inhibition (KARPAS-229, 4 µM): 49% and 74%
target mRNA inhibition (KARPAS-229, 12 µM): 77%

AGATGGTGTTATCTCC (sugars kkkddddddddkekek, PS)
target mRNA inhibition (KARPAS-229, 4 µM): 0%

AAGGGCACAGCGCAGG (sugars kkkddddddddkdkdk, PS)
target mRNA inhibition (KARPAS-229, 4 µM): 12%

TGTCTAGTGTCATGGA (sugars k3 d9 k3 e1, PS)
target mRNA inhibition (KARPAS-229, 4 µM): 39%

GTCTTGACCTCCCGCT (sugars k2 d9 e3 k2, PS)
target mRNA inhibition (KARPAS-229, 0.44444 µM): 22%
target mRNA inhibition (KARPAS-229, 1.33333 µM): 32%
target mRNA inhibition (KARPAS-229, 4 µM): 54% and 41%
target mRNA inhibition (KARPAS-229, 12 µM): 58%

CTGACACAGGCGGATG (sugars kkddddddddkekekk, PS)
target mRNA inhibition (KARPAS-229, 4 µM): 0%

TGAGTCATGGGCTGAG (sugars k3 d10 k3, PS)
target mRNA inhibition (KARPAS-229, 4 µM): 0%

TTATTTCTGCTCCAGG (sugars k3 d10 k3, PS)
target mRNA inhibition (KARPAS-229, 0.44444 µM): 51%
target mRNA inhibition (KARPAS-229, 1.33333 µM): 66%
target mRNA inhibition (KARPAS-229, 4 µM): 55% and 77%
target mRNA inhibition (KARPAS-229, 12 µM): 84%

ATCACCACTGTGTACC (sugars k3 d9 k3 e1, PS)
target mRNA inhibition (KARPAS-229, 4 µM): 19%

GTTATCTCCGTCCTGG (sugars kekdddddddddeekk, PS)
target mRNA inhibition (KARPAS-229, 4 µM): 13%

GAGCAAAGGGTGAGTA (sugars k3 d10 k3, PS)
target mRNA inhibition (KARPAS-229, 4 µM): 0%

CTTGGTCTTGACCTCC (sugars k2 d8 e4 k2, PS)
target mRNA inhibition (KARPAS-229, 4 µM): 20%

AAGGGCACAGCGCAGG (sugars kkddddddddddkeke, PS)
target mRNA inhibition (KARPAS-229, 4 µM): 0%

CACTGACACAGGCGGA (sugars k3 d10 k3, PS)
target mRNA inhibition (KARPAS-229, 4 µM): 1% and 0%

AAGGGCACAGCGCAGG (sugars kkddddddddkekekk, PS)
target mRNA inhibition (KARPAS-229, 4 µM): 0%
